Source: patent US20160024127A1, “COMPOUNDS AND USES THEREOF FOR THE MODULATION OF HEMOGLOBIN” (GLOBAL BLOOD THERAPEUTICS, INC., priority 2013, published 2016)

Assay: Pharmacokinetics after oral administration of the monophosphate prodrug to rats (blood and plasma)
Assay type: in vivo
Procedure: A sodium salt of the monophosphate prodrug compound (Formula (V-B)) was administered orally to rats in a dose of 10 mg/kg (5 mL/kg). The vehicle administered was dimethylacetamide:PEG400:30% HβCD (5:25:70). The pharmacokinetic results are tabulated below and graphically illustrated in FIG. 1.

Structure (SMILES)	whole blood Cmax following administration of the compound of formula (III), compared with Cmax after the monophosphate prodrug (compound of formula (III) administered at the same dose)	conversion of the prodrug to compound of formula (III) (oral, 10 mg/kg, rats)
CC(C)n1nccc1-c1ncccc1COc1cccc(O)c1C=O [Formula (III), 2-hydroxy-6-([2-[1-(propan-2-yl)-1H-pyrazol-5-yl]pyridin-3-yl]methoxy)benzaldehyde]	equivalent	
CC(C)n1nccc1-c1ncccc1COc1cccc(OP(=O)(O)O)c1C=O [Formula (V-B), 2-formyl-3-((2-(1-isopropyl-1H-pyraol-5-yl)pyridin-3-yl)methoxy)phenyl dihydrogen phosphate]		efficiently con veiled to compound of formula (III)
